Measurements from article PMC6934184, “Selective DNA-PKcs inhibition extends the therapeutic index of localized radiotherapy and chemotherapy” (The Journal of Clinical Investigation, 2019).

Biological target: T1, PRKCZ (PKC zeta) (Homo sapiens, UniProt Q05513)
T1 construct: purchased Thermo Fisher Scientific (Life Technologies) SelectScreen
Assay: SelectScreen Z'LYTE
Assay type: biochemical
In short: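 NU5455 was profiled across the SelectScreen Broad panel of kinase activity and binding assays. Z'LYTE reactions such as CSF1R ran at apparent Km ATP, while the Adapta CAMK1 assay used ATP listed as 10. Values are given as percent.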

T1 sequence (Q05513 whole entry): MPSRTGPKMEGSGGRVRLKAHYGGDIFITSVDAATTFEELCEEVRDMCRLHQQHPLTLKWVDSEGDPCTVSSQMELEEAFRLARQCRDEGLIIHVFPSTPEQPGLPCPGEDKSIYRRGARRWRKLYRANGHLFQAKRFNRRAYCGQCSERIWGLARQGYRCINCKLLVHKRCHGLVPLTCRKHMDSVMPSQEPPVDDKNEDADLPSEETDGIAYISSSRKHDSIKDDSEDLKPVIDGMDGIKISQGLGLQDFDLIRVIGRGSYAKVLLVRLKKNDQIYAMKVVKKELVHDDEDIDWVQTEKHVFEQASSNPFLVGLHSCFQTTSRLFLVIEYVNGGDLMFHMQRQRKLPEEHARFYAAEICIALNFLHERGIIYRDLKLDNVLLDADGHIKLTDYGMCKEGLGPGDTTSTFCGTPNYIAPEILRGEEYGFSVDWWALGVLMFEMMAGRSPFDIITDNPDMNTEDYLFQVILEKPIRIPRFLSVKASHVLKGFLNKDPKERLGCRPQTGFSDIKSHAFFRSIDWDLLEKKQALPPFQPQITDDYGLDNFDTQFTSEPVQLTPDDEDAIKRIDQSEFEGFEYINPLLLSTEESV

With `CN(C(=O)CN1CCOCC1)c1ccc2sc3c(-c4cccc5c(=O)cc(N6CC7CCC(C6)O7)oc45)cccc3c2c1` [NU5455] the inhibition at 1 µM was 4.7%.
